Data from paper PMC4770715, “LIM kinase inhibitors disrupt mitotic microtubule organization and impair tumor cell proliferation” (Oncotarget, 2015).

Tests used:
Assay in all cases: biochemical
Design in all cases: KINOMEscan active-site competition binding, percent of control (100 = no competition)
Details in all cases: competition binding, percent control
ABL1-phosphorylated = molecular target: T1, ABL1-phosphorylated (Homo sapiens, UniProt P00519)
T1 construct: phosphorylated
Description: (§1) Given the potential for the use of LIMK inhibitors as cancer chemotherapeutics, a high-throughput drug discovery and medicinal chemistry program was undertaken. Details of the screening methodology and description of initial hit matter were described in [38]. […] Details of their chemical synthesis are described in Charles et al.. […] These and additional physiochemical parameters are in Supplemental Table 5. […] Kinases inhibited >25% to 50% have yellow circles, 51% to 75% have orange circles, and >76% have red circles. In each case, the size of the circle is proportional to percentage inhibition. LIMK1 and LIMK2 positions are indicated in blue. Illustration reproduced courtesy of Cell Signaling Technology, Inc. (www.cellsignal.com). B. CRT0105950 structure and kinome selectivity mapping as described above. C.

AURKC = AURKC (Homo sapiens, UniProt Q9UQB9)
Description: as §1

BTK = BTK (Homo sapiens, UniProt Q06187)
Description: as §1

DRAK1 = molecular target: T2, DRAK1 (Homo sapiens, UniProt Q9UEE5)
T2 construct: gene STK17A
Description: as §1

ERN1 = ERN1 (Homo sapiens, UniProt O75460)
Description: as §1

GRK1 = GRK1 (Homo sapiens, UniProt Q15835)
Description: as §1

LATS2 = LATS2 (Homo sapiens, UniProt Q9NRM7)
Description: as §1

LYN = LYN (Homo sapiens, UniProt P07948)
Description: as §1

MAP4K2 = MAP4K2 (Homo sapiens, UniProt Q12851)
Description: as §1

MET = MET (Homo sapiens, UniProt P08581)
Description: as §1

MLCK = molecular target: T3, MLCK (Homo sapiens, UniProt Q32MK0)
T3 construct: gene MYLK3
Description: as §1

PAK7 = molecular target: T4, PAK7 (Homo sapiens, UniProt Q9P286)
T4 construct: gene PAK5
Description: as §1

PHKG2 = PHKG2 (Homo sapiens, UniProt P15735)
Description: as §1

PKNB(M.tuberculosis) = PKNB(M.tuberculosis) (Mycobacterium tuberculosis, UniProt P9WI81)
Description: as §1

RET = RET (Homo sapiens, UniProt P07949)
Description: as §1

RIOK1 = RIOK1 (Homo sapiens, UniProt Q9BRS2)
Description: as §1

SBK1 = SBK1 (Homo sapiens, UniProt Q52WX2)
Description: as §1

SLK = SLK (Homo sapiens, UniProt Q9H2G2)
Description: as §1

SRC = SRC (Homo sapiens, UniProt P12931)
Description: as §1

SRPK2 = SRPK2 (Homo sapiens, UniProt P78362)
Description: as §1

TLK2 = TLK2 (Homo sapiens, UniProt Q86UE8)
Description: as §1

TSSK1B = TSSK1B (Homo sapiens, UniProt Q9BXA7)
Description: as §1

ZAP70 = ZAP70 (Homo sapiens, UniProt P43403)
Description: as §1

Sequence of SBK1 (Q52WX2 whole entry): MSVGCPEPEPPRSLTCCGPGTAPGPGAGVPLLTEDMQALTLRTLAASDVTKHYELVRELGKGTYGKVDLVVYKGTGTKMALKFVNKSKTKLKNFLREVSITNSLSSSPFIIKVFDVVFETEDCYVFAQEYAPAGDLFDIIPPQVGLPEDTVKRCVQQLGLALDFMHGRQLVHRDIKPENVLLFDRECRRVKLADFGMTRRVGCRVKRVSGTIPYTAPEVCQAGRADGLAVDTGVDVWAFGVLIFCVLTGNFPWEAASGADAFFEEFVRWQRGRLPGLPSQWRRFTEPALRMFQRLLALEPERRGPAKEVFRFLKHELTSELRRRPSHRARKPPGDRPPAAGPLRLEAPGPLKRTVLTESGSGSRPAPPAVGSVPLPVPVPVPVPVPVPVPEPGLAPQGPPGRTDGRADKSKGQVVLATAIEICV
Sequence of ZAP70 (P43403 whole entry): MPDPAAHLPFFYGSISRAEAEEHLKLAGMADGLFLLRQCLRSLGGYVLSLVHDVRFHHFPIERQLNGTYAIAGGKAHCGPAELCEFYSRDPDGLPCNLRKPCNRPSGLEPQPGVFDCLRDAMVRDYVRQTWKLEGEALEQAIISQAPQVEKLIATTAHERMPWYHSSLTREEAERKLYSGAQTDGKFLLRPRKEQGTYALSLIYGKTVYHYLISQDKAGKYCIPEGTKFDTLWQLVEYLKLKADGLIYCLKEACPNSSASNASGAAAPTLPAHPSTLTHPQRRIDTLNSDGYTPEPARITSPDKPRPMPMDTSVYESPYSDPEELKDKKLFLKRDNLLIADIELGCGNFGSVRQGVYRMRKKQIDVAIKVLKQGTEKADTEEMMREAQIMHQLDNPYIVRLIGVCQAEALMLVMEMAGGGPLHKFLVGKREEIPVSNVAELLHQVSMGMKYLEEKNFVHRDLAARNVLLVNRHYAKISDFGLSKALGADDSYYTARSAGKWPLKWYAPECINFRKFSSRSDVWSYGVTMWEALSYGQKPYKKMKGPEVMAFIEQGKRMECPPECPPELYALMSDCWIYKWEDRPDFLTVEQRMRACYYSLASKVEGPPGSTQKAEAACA
T2 sequence (Q9UEE5 whole entry): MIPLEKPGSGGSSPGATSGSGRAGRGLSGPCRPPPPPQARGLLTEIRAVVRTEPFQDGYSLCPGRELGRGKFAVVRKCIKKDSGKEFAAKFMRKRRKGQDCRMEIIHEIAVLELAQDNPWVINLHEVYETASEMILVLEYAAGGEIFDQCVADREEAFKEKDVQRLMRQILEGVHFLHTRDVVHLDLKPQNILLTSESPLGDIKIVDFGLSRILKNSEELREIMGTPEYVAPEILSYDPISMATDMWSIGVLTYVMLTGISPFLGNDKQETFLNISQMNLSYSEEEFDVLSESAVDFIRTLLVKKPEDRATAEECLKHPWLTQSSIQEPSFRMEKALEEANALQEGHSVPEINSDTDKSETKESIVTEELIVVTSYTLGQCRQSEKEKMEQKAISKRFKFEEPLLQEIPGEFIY
Sequence of RIOK1 (Q9BRS2 whole entry): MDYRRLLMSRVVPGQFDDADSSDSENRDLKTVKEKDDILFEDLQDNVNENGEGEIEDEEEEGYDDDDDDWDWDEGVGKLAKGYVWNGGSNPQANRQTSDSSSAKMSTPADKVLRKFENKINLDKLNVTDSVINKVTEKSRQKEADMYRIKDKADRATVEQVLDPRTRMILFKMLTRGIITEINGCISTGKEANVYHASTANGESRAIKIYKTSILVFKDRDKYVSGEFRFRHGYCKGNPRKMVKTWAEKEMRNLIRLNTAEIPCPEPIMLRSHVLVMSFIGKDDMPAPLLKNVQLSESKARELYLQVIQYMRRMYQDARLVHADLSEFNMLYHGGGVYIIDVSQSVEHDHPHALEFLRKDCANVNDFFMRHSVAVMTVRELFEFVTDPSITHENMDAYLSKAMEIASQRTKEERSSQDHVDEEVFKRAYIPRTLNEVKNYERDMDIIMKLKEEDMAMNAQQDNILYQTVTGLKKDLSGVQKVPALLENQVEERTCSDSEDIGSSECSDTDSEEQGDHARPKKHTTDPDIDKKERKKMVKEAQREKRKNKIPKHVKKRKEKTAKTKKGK
Sequence of MAP4K2 (Q12851 whole entry): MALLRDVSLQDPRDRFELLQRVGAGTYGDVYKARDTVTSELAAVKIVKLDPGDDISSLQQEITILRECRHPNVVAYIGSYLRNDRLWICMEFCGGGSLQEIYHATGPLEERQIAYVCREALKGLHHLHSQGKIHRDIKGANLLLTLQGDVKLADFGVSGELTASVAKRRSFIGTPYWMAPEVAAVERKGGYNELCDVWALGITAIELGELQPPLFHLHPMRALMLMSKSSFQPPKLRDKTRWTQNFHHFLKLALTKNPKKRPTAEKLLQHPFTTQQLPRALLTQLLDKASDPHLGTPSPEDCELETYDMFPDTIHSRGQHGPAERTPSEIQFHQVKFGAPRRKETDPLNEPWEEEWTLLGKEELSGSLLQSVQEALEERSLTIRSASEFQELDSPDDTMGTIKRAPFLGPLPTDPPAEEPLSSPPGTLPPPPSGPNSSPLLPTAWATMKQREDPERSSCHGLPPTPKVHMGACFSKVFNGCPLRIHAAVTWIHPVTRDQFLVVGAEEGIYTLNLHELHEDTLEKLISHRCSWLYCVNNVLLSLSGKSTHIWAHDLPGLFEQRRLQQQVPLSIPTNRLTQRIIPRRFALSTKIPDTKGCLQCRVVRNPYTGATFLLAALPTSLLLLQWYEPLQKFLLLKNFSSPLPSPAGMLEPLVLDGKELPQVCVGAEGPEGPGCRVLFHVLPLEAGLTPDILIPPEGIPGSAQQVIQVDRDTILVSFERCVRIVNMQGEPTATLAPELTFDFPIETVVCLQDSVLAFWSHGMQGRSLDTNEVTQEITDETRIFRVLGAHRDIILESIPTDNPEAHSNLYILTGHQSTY
T4 sequence (Q9P286 whole entry): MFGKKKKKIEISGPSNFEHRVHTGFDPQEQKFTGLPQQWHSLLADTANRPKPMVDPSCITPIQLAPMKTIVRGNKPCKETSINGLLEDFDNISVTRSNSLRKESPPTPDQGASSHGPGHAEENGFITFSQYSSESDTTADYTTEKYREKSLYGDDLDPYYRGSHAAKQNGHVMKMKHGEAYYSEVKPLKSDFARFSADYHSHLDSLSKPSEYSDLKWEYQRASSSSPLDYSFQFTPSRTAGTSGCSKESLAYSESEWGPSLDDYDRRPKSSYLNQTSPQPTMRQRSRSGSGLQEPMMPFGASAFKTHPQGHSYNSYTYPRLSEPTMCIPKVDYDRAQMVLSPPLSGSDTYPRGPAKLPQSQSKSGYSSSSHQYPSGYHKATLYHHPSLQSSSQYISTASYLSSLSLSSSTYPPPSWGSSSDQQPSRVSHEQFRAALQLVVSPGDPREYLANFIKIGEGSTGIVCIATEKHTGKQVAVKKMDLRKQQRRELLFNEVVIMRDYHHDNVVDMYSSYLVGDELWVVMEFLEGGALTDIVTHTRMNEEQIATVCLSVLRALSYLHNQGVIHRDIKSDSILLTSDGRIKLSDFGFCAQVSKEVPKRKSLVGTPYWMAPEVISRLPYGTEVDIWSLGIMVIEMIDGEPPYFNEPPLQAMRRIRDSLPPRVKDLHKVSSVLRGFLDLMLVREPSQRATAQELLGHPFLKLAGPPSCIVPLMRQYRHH
Sequence of LATS2 (Q9NRM7 whole entry): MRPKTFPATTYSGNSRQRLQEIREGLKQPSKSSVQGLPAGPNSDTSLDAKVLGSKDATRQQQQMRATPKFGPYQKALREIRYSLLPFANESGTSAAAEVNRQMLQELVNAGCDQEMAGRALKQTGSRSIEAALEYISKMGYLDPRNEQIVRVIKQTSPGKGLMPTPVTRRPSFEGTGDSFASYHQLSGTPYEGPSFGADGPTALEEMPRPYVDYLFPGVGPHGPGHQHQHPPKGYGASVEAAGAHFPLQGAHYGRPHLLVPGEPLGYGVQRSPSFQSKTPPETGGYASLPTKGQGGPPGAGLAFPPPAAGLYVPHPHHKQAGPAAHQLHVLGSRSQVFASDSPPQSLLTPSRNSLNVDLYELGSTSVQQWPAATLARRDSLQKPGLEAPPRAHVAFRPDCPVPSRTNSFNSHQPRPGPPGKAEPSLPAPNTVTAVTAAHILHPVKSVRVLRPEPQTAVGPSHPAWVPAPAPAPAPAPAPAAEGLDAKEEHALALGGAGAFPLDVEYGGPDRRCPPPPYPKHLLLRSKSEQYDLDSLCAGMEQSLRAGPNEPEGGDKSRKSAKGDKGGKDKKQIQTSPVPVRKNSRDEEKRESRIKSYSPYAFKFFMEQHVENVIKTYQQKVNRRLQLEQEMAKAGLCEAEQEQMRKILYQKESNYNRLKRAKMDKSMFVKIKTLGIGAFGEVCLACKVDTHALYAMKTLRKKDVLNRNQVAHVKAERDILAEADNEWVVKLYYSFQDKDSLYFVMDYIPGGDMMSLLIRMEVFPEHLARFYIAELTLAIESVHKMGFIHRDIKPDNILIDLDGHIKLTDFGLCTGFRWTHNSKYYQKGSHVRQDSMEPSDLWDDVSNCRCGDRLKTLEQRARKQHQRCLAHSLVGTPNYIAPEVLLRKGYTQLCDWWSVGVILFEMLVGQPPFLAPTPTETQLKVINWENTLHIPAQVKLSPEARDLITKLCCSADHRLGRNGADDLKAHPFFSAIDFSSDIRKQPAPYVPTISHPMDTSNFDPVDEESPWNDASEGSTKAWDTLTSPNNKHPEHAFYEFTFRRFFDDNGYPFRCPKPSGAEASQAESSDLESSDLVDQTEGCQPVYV
Sequence of TSSK1B (Q9BXA7 whole entry): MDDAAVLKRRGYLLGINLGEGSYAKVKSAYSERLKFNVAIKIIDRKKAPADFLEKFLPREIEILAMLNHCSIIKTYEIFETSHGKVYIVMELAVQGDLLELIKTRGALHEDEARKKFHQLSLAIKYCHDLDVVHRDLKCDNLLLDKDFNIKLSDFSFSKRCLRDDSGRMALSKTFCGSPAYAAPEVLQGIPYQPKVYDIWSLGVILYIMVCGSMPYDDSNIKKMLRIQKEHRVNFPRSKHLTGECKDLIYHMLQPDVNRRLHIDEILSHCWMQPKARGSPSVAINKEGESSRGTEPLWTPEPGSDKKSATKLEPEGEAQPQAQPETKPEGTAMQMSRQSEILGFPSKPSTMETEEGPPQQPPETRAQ

Compound	remaining binding at 10 µM (ABL1-phosphorylated)	remaining binding at 10 µM (AURKC)	remaining binding at 10 µM (BTK)	remaining binding at 10 µM (DRAK1)	remaining binding at 10 µM (ERN1)	remaining binding at 10 µM (GRK1)	remaining binding at 10 µM (LATS2)	remaining binding at 10 µM (LYN)	remaining binding at 10 µM (MAP4K2)	remaining binding at 10 µM (MET)	remaining binding at 10 µM (MLCK)	remaining binding at 10 µM (PAK7)	remaining binding at 10 µM (PHKG2)	remaining binding at 10 µM (PKNB(M.tuberculosis))	remaining binding at 10 µM (RET)	remaining binding at 10 µM (RIOK1)	remaining binding at 10 µM (SBK1)	remaining binding at 10 µM (SLK)	remaining binding at 10 µM (SRC)	remaining binding at 10 µM (SRPK2)	other results
COc1ccc(-c2cnccc2-c2cnc(NC(=O)C(C)C)s2)c(C(F)(F)F)c1 [CRT0105446, N-{5-[3-(4-Methoxy-2-trifluoromethyl-phenyl)-pyridin-4-yl]-hiazol-2-yl}-isobutyramide]	77%	88%	85%	81%	87%	70%	90%	100%	100%	80%	90%	95%	92%	82%	87%	97%	100%	100%	100%	93%	remaining binding at 10 µM (TLK2): 99%; remaining binding at 10 µM (TSSK1B): 80%; remaining binding at 10 µM (ZAP70): 86%
Cc1ccc(-c2cnccc2-c2cnc(Nc3ccc(O)cc3)s2)c(Cl)c1 [CRT0105950, 4-{5-[3-(2-Chloro-4-methyl-phenyl)-pyridin-4-yl]-thiazol-2-ylamino}-phenol]	70%	3.8%	72%	100%	68%	59%	6%	26%	81%	16%	14%	93%	52%	19%	1.2%	65%	79%	95%	82%	83%	remaining binding at 10 µM (TLK2): 56%; remaining binding at 10 µM (TSSK1B): 100%; remaining binding at 10 µM (ZAP70): 99%
